Reference: patent US10821115B2, “Compounds that inhibit Mcl-1 protein” (priority 2017, dated 2020)
pIC50: −log10 of the molar value. Where two headings read alike, the source gives them in different places.

Key:
[1] = biological target: recombinant human Mcl-1 (residues 171-327) / Bim interaction (Homo sapiens (Human), UniProt Q07820); assay: biochemical; format: binding; conditions: read-out: Mcl-1 HTRF IC50
[2] = system: human multiple myeloma cell line, OPM-2; assay: Cell viability assay (OPM-2 10 FBS), CellTiter-Glo; format: cell-based
How it was run: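 OPM-2 cells at 3000 cells/well in RPMI 1640 with 10% FBS were exposed to serially diluted compounds for 16 h at 37 °C, 5% CO2.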

[3] = 0.1 nM Mcl-1(171-327), 0.05 nM biotin-Bim (51-76)
[4] = read-out: OPM-2 10% FBS IC50 IP, OPM-2 cells, 10% FBS, 16 h incubation
[5] = TR-FRET, Mcl-1(171-327) / biotin-Bim (51-76)
[6] = Homo sapiens, OPM-2, 16 h, read-out: OPM-2 10% FBS IC50 IP, OPM-2 cells, 10% FBS, 16 h, CellTiter-Glo
[7] = read-out: OPM-2 10% FBS IC50 IP, OPM-2 cells, 10% FBS, 16 h, CellTiter-Glo
[8] = Homo sapiens, OPM-2, 16 h, read-out: OPM-2 10% FBS IC50 IP, OPM-2 cells, 10% FBS, 16 h incubation

recombinant human Mcl-1 (residues 171-327) / Bim interaction, sequence (Q07820 171-327): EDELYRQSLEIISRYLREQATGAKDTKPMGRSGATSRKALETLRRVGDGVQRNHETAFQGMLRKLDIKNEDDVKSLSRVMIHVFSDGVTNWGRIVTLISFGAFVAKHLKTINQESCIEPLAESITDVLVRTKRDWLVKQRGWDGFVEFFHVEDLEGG

Compound | pIC50 [1, 3] | pIC50 [1, 5] | pIC50 [2, 6] | pIC50 [2, 8] | also measured
CO[C@]1(CN2CCN3CC[C@H](F)C[C@@H]3C2)/C=C/C[C@H](C)[C@@H](C)S(=O)(=O)NC(=O)c2ccc3c(c2)N(C[C@@H]2CC[C@H]21)C[C@@]1(CCCc2cc(Cl)ccc21)CO3 (single isomer, unassigned) [Example 325] | 9.74 |  |  |  | pIC50 [2, 4]: 6.72
CO[C@@]1([C@@H](C)O)CCC[C@H](C)[C@@H](C)S(=O)(=O)NC(=O)c2ccc3c(c2)N(C[C@@H]2CC[C@H]21)C[C@@]1(CCCc2cc(Cl)ccc21)CO3 [Example 100483, (1S,3′R,6′R,7′S,11′S,12′R)-6-chloro-7′-((1R)-1-hydroxyethyl)-7′-methoxy-11′,12′-dimethyl-3,4-dihydro-2H,15′H-spiro[naphthalene-1,22′-[20]oxa[13]thia[1,14]diazatetracyclo [14.7.2.0~3,6~.0~19,24~]pentacosa[16,18,24]trien]-15′-one 13′,13′-dioxide] |  | 8.78 | 5.77 |  | 
COC[C@]1(OC)CCC[C@H](C)[C@@H](C)S(=O)(=O)NC(=O)c2ccc3c(c2)N(C[C@@H]2CC[C@H]21)C[C@@]1(CCCc2cc(Cl)ccc21)CO3 [Example 100225, (1S,3′R,6′R,7′S,11′S,12′R)-6-chloro-7′-methoxy-7′-(methoxymethyl)-11′,12′-dimethyl-3,4-dihydro-2H,15′H-spiro[naphthalene-1,22′-[20]oxa[13]thia[1,14]diazatetracyclo [14.7.2.0~3,6~.0~19,24~]pentacosa[16,18,24]trien]-15′-one 13′,13′-dioxide] |  | 9.19 |  |  | pIC50 [2, 7]: 6.05
CCCO[C@]1(CN2CCN(C(C)C)[C@H](C)C2)/C=C/C[C@H](C)[C@@H](C)S(=O)(=O)NC(=O)c2ccc3c(c2)N(C[C@@H]2CC[C@H]21)C[C@@]1(CCCc2cc(Cl)ccc21)CO3 [Example 368, (1S,3′R,6′R,7′R,8′E,11′S,12′R)-6-chloro-11′,12′-dimethyl-7′-(((3R)-3-methyl-4-(2-propanyl)-1-piperazinyl)methyl)-7′-propoxy-3,4-dihydro-2H,15′H-spiro[naphthalene-1,22′-[20]oxa[13]thia[1,14]diazatetracyclo [14.7.2.0~3,6~.0~19,24~]pentacosa[8,16,18,24]tetraen]-15′-one 13′,13′-dioxide] | 10.16 |  |  | 7.17 | 
CO[C@]1(CN2CC[C@H]3CCCC[C@@H]3C2)/C=C/C[C@H](C)[C@@H](C)S(=O)(=O)NC(=O)c2ccc3c(c2)N(C[C@@H]2CC[C@H]21)C[C@@]1(CCCc2cc(Cl)ccc21)CO3 [Example 86] | 8.41 |  |  |  | pIC50 [2, 4]: 5.10
CCCO[C@]1(CN2CCN3CCCC[C@@H]3C2)/C=C/C[C@H](C)[C@@H](C)S(=O)(=O)NC(=O)c2ccc3c(c2)N(C[C@@H]2CC[C@H]21)C[C@@]1(CCCc2cc(Cl)ccc21)CO3 [Example 353, (1S,3′R,6′R,7′R,8′E,11′S,12′R)-6-chloro-11′,12′-dimethyl-7′-((9aR)-octahydro-2H-pyrido[1,2-a]pyrazin-2-ylmethyl)-7′-propoxy-3,4-dihydro-2H,15′H-spiro[naphthalene-1,22′-[20]oxa[13]thia[1,14]diazatetracyclo [14.7.2.0~3,6~.0~19,24~]pentacosa[8,16,18,24]tetraen]-15′-one 13′,13′-dioxide] | 9.87 |  |  |  | pIC50 [2, 4]: 6.73
CO[C@@]1(CN2CCN(C)CC2)/C=C/C[C@H](C)[C@@H](C)S(=O)(=O)NC(=O)c2ccc3c(c2)N(C[C@@H]2CC[C@H]21)C[C@@]1(CCCc2cc(Cl)ccc21)CO3 [Example 196, (1S,3′R,6′R,7′S,8′E,11′S,12′R)-6-chloro-7′-methoxy-11′,12′-dimethyl-7′-((4-methyl-1-piperazinyl)methyl)-3,4-dihydro-2H,15′H-spiro[naphthalene-1,22′-[20]oxa[13]thia[1,14]diazatetracyclo [14.7.2.0~3,6~.0~19,24~]pentacosa[8,16,18,24]tetraen]-15′-one 13′,13′-dioxide] | 9.33 |  |  | 6.52 | 
COCC(C)(C)N1CCN(C[C@@]2(OC)/C=C/C[C@H](C)[C@@H](C)S(=O)(=O)NC(=O)c3ccc4c(c3)N(C[C@@H]3CC[C@H]32)C[C@@]2(CCCc3cc(Cl)ccc32)CO4)CC1 [Example 333, (1S,3′R,6′R,7′R,8′E,11′S,12′R)-6-chloro-7′-methoxy-7′-((4-(2-methoxy-1,1-dimethylethyl)-1-piperazinyl)methyl)-11′,12′-dimethyl-3,4-dihydro-2H,15′H-spiro[naphthalene-1,22′-[20]oxa[13]thia[1,14]diazatetracyclo [14.7.2.0~3,6~.0~19,24~]pentacosa[8,16,18,24]tetraen]-15′-one 13′,13′-dioxide] | 10.06 |  |  | 7.09 | 
C[C@@H]1[C@@H](C)CCC[C@@](O)(Cc2ncccn2)[C@@H]2CC[C@H]2CN2C[C@@]3(CCCc4cc(Cl)ccc43)COc3ccc(cc32)C(=O)NS1(=O)=O [Example 100146, (1S,3′R,6′R,7′R,11′S,12′R)-6-chloro-7′-hydroxy-11′,12′-dimethyl-7′-(2-pyrimidinylmethyl)-3,4-dihydro-2H,15′H-spiro[naphthalene-1,22′-[20]oxa[13]thia[1,14]diazatetracyclo [14.7.2.0~3,6~.0~19,24~]pentacosa[16,18,24]trien]-15′-one 13′,13′-dioxide] |  | 9.29 | 6.46 |  | 
C[C@@H]1[C@@H](C)C/C=C/[C@@](O)(c2cncnc2)[C@@H]2CC[C@H]2CN2C[C@@]3(CCCc4cc(Cl)ccc43)COc3ccc(cc32)C(=O)NS1(=O)=O (single isomer, unassigned) [Example 100434] |  | 9.79 | 6.32 |  | 
CC(=O)N[C@@]1(C#N)CCC[C@H](C)[C@@H](C)S(=O)(=O)NC(=O)c2ccc3c(c2)N(C[C@@H]2CC[C@H]21)C[C@@]1(CCCc2cc(Cl)ccc21)CO3 [Example 100263, N-((1S,3′R,6′R,7′S,11′S,12′R)-6-chloro-7′-cyano-11′,12′-dimethyl-13′,13′-dioxido-15′-oxo-3,4-dihydro-2H-spiro[naphthalene-1,22′-[20]oxa[13]thia[1,14]diazatetracyclo [14.7.2.0~3,6~.0~19,24~]pentacosa[16,18,24]trien]-7′-yl)acetamide] |  | 8.74 | 5.47 |  | 
C[C@@H]1[C@@H](C)C/C=C/[C@@](O)(CC#N)[C@@H]2CC[C@H]2CN2C[C@@]3(CCCc4cc(Cl)ccc43)COc3ccc(cc32)C(=O)NS1(=O)=O [Example 100051, ((1S,3′R,6′R,7′S,8′E,11′S,12′R)-6-chloro-7′-hydroxy-11′,12′-dimethyl-13′,13′-dioxido-15′-oxo-3,4-dihydro-2H-spiro[naphthalene-1,22′-[20]oxa[13]thia[1,14]diazatetracyclo [14.7.2.0~3,6~.0~19,24~]pentacosa[8,16,18,24]tetraen]-7′-yl)acetonitrile] |  |  |  |  | pIC50 [1]: 9.66; pIC50 [2, 7]: 6.30
CCCO[C@]1(CN2CCN(C3COC3)CC2)/C=C/C[C@H](C)[C@@H](C)S(=O)(=O)NC(=O)c2ccc3c(c2)N(C[C@@H]2CC[C@H]21)C[C@@]1(CCCc2cc(Cl)ccc21)CO3 [Example 352, (1S,3′R,6′R,7′R,8′E,11′S,12′R)-6-chloro-11′,12′-dimethyl-7′-((4-(3-oxetanyl)-1-piperazinyl)methyl)-7′-propoxy-3,4-dihydro-2H,15′H-spiro[naphthalene-1,22-[20]oxa[13]thia[1,14]diazatetracyclo [14.7.2.0~3,6~.0~19,24~]pentacosa[8,16,18,24]tetraen]-15′-one 13′,13′-dioxide] | 9.95 |  |  | 6.79 | 
CNC[C@]1(OC)/C=C/C[C@H](C)[C@@H](C)S(=O)(=O)NC(=O)c2ccc3c(c2)N(C[C@@H]2CC[C@H]21)C[C@@]1(CCCc2cc(Cl)ccc21)CO3 [Example 65, (1S,3′R,6′R,7′S,8′E,11′S,12′R)-6-chloro-7′-methoxy-11′,12′-dimethyl-7′-((methylamino)methyl)-3,4-dihydro-2H,15′H-spiro[naphthalene-1,22′-[20]oxa[13]thia[1,14]diazatetracyclo [14.7.2.0~3,6~.0~19,24~]pentacosa[8,16,18,24]tetraen]-15′-one 13′,13′-dioxide] | 9.35 |  |  | 5.82 | 
CC[C@@H]1CC/C=C/[C@@](CN2CCN3CCCC[C@@H]3C2)(OC)[C@@H]2CC[C@H]2CN2C[C@@]3(CCCc4cc(Cl)ccc43)COc3ccc(cc32)C(=O)NS1(=O)=O [Example 32, (1S,3′R,6′R,7′R,8′E,12′R)-6-chloro-12′-ethyl-7′-methoxy-7′-((9aR)-octahydro-2H-pyrido[1,2-a]pyrazin-2-ylmethyl)-3,4-dihydro-2H,15′H-spiro[naphthalene-1,22′-[20]oxa[13]thia[1,14]diazatetracyclo [14.7.2.0~3,6~.0~19,24~]pentacosa[8,16,18,24]tetraen]-15′-one 13′,13′-dioxide] | 9.89 |  |  | 6.83 | 
C[C@@H]1[C@@H](C)C/C=C/[C@](O)(c2cncnc2)[C@@H]2CC[C@H]2CN2C[C@@]3(CCCc4cc(Cl)ccc43)COc3ccc(cc32)C(=O)NS1(=O)=O [Example 100410, (1S,3′R,6′R,7′R,8′E,11′S,12′R)-6-chloro-7′-hydroxy-11′,12′-dimethyl-7′-(5-pyrimidinyl)-3,4-dihydro-2H,15′H-spiro[naphthalene-1,22′-[20]oxa[13]thia[1,14]diazatetracyclo [14.7.2.0~3,6~.0~19,24~]pentacosa[8,16,18,24]tetraen]-15′-one 13′,13′-dioxide] |  | 9.90 | 6.53 |  | 
